How the values were obtained:
human CB2 receptors = human CB2 receptors (Homo sapiens (Human), UniProt P34972); assay: functional cAMP assay, CHO cells expressing human CB2 receptors; format: cell-based
Outline: (§1)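 CHO cells expressing human CB1 or CB2 were preincubated 30 min at 30 °C in Krebs Ringer bicarbonate with 1 mM IBMX, then exposed to compound 30 min at 30 °C. cAMP quantified by TR-FRET competition (Alexa700 antibody/ruthenium-cAMP) against a 10 μM–0.13 nM standard curve; EC50 derived.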

human CB1 receptors = human CB1 receptors (Homo sapiens (Human), UniProt P21554); assay: functional cAMP assay, CHO cells expressing human CB1 receptors; format: cell-based
Sequence of human CB1 receptors (P21554 whole entry): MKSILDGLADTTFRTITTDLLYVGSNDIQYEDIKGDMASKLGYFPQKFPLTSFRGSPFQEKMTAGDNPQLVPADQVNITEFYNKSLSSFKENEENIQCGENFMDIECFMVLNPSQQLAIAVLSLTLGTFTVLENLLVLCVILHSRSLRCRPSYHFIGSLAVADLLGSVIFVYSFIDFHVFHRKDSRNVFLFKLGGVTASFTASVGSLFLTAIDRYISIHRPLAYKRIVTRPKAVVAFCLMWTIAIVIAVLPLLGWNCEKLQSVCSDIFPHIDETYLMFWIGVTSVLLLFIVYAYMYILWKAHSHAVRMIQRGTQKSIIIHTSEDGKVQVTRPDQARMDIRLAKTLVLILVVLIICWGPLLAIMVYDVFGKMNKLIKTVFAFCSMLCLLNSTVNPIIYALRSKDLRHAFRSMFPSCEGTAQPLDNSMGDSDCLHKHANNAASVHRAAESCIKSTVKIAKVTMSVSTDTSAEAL
Outline: as §1

Sequence of human CB2 receptors (P34972 whole entry): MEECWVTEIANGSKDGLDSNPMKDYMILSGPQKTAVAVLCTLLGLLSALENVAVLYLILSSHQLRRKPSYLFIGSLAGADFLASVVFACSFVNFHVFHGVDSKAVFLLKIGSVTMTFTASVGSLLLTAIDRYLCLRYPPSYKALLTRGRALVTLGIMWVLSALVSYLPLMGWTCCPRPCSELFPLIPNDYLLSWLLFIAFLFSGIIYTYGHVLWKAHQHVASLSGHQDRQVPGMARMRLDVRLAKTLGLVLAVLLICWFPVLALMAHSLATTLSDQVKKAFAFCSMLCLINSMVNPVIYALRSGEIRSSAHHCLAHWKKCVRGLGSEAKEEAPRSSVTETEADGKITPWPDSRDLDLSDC

`NC(=O)C1CCCN1C(=O)c1ccc(N2CC(F)(F)C2)c(OCC2CC2)n1` (centres unmarked) [Example 114, 1-[6-Cyclopropylmethoxy-5-(3,3-difluoro-azetidin-1-yl)-pyridine-2-carbonyl]-pyrrolidine-2-carboxylic acid amide] gave an EC50 (human CB2 receptors) of 0.473 µM and an EC50 (human CB1 receptors) of over 10 µM.

For `CC1(C)CCCN1C(=O)c1ccc(C2CC2)c(OCC(F)(F)C(F)(F)F)n1` [Example 84, [5-Cyclopropyl-6-(2,2,3,3,3-pentafluoro-propoxy)-pyridin-2-yl]-(2,2-dimethyl-pyrrolidin-1-yl)-methanone], the EC50 (human CB2 receptors) was 0.0189 µM and the EC50 (human CB1 receptors) was over 10 µM.

With `O=C(c1ccc(N2CC(F)(F)C2)c(OCC2CC2)n1)N1C[C@@H]2C[C@H]1CO2` [Example 65, [6-Cyclopropylmethoxy-5-(3,3-difluoro-azetidin-1-yl)-pyridin-2-yl]-(1S,4S)-2-oxa-5-aza-bicyclo[2.2.1]hept-5-yl-methanone] the EC50 (human CB2 receptors) was 0.1 µM and the EC50 (human CB1 receptors) was over 10 µM.

In the case of `O=C(c1ccc(C2CC2)c(OCC2CC2)n1)N1CC(O)(C(F)(F)F)C1` [Example 144, [5-Cyclopropyl-6-(cyclopropylmethoxy)pyridin-2-yl]-[3-hydroxy-3-(trifluoromethyl)azetidin-1-yl]methanone], the EC50 (human CB2 receptors) is reported as 0.073 µM and the EC50 (human CB1 receptors) is reported as over 10 µM.

Work on `CCOC(=O)CN(C(=O)c1ccc(N2CC(F)(F)C2)c(OCC2CC2)n1)C(C)(C)C` [Example 23, {tert-Butyl-[6-cyclopropylmethoxy-5-(3,3-difluoro-azetidin-1-yl)-pyridine-2-carbonyl]-amino}-acetic acid ethyl ester] yielded an EC50 (human CB2 receptors) of 0.0058 µM and an EC50 (human CB1 receptors) of over 10 µM.

With `CC1(C)CC(C2CCN(C(=O)c3ccc(N4CC(F)(F)C4)c(OCC4CC4)n3)CC2)C(=O)N1` (centres unmarked) [Example 58, 3-{1-[6-Cyclopropylmethoxy-5-(3,3-difluoro-azetidin-1-yl)-pyridine-2-carbonyl]-piperidin-4-yl}-5,5-dimethyl-pyrrolidin-2-one] the EC50 (human CB2 receptors) was 0.594 µM and the EC50 (human CB1 receptors) was over 10 µM.

Work on `O=C(c1ccc(N2CC(F)(F)C2)c(OCC2CC2)n1)N1CC2CCOC2C1` (centres unmarked) [Example 70, [6-Cyclopropylmethoxy-5-(3,3-difluoro-azetidin-1-yl)-pyridin-2-yl]-(hexahydrofuro[2,3-c]pyrrol-5-yl)-methanone] yielded an EC50 (human CB2 receptors) of 0.104 µM and an EC50 (human CB1 receptors) of over 10 µM.

Molecule `O=C(c1ccc(N2CC(F)(F)C2)c(OCC2CC2)n1)N1CC2(COC2)C1` [Example 11, [6-Cyclopropylmethoxy-5-(3,3-difluoro-azetidin-1-yl)-pyridin-2-yl]-(2-oxa-6-aza-spiro[3.3]hept-6-yl)-methanone] has an EC50 (human CB2 receptors) of 0.364 µM and an EC50 (human CB1 receptors) of over 10 µM.

In the case of `O=C(c1ccc(N2CC(F)(F)C2)c(OCC2CC2)n1)N1[C@@H]2CC[C@H]1COC2` [Example 86, [6-Cyclopropylmethoxy-5-(3,3-difluoro-azetidin-1-yl)-pyridin-2-yl]-(1R,5S)-3-oxa-8-aza-bicyclo[3.2.1]oct-8-yl-methanone], the EC50 (human CB2 receptors) is reported as 0.0727 µM and the EC50 (human CB1 receptors) is reported as over 10 µM.

`NC(=O)[C@H]1CCCCN1C(=O)c1ccc(C2CC2)c(OCC2CC2)n1` [Example 91, (+)-1-(5-Cyclopropyl-6-cyclopropylmethoxy-pyridine-2-carbonyl)-piperidine-2-carboxylic acid amide] gave an EC50 (human CB2 receptors) of 0.893 µM and an EC50 (human CB1 receptors) of over 10 µM.

For `CC(=O)NC1CCN(C(=O)c2ccc(N3CC(F)(F)C3)c(OCC3CC3)n2)C1` (centres unmarked) [Example 41, N-{1-[6-Cyclopropylmethoxy-5-(3,3-difluoro-azetidin-1-yl)-pyridine-2-carbonyl]-pyrrolidin-3-yl}-acetamide], the EC50 (human CB2 receptors) was 0.966 µM and the EC50 (human CB1 receptors) was over 10 µM.

Molecule `CC1(C)SCN(C(=O)c2ccc(N3CC(F)(F)C3)c(OCC3CC3)n2)[C@@H]1C(N)=O` [Example 120, (R)-3-[6-Cyclopropylmethoxy-5-(3,3-difluoro-azetidin-1-yl)-pyridine-2-carbonyl]-5,5-dimethyl-thiazolidine-4-carboxylic acid amide] has an EC50 (human CB2 receptors) of 0.042 µM and an EC50 (human CB1 receptors) of over 10 µM.

`CN(C(=O)c1ccc(N2CC(F)(F)C2)c(OCC2CC2)n1)C1(C(F)(F)F)CC1` [Example 16, 6-Cyclopropylmethoxy-5-(3,3-difluoro-azetidin-1-yl)-pyridine-2-carboxylic acid methyl-(1-trifluoromethyl-cyclopropyl)-amide] gave an EC50 (human CB2 receptors) of 0.008 µM and an EC50 (human CB1 receptors) of over 10 µM.

`O=C(c1ccc(N2CC(F)(F)C2)c(OCC2CC2)n1)N1CCC2(CC2)C1` [Example 104, (5-Aza-spiro[2.4]hept-5-yl)-[6-cyclopropylmethoxy-5-(3,3-difluoro-azetidin-1-yl)-pyridin-2-yl]-methanone] was tested, and the EC50 (human CB2 receptors) was 0.0074 µM and the EC50 (human CB1 receptors) was over 10 µM.

For `CC1(C)CCN(C(=O)c2ccc(C3CC3)c(Cc3ccc(F)cc3)n2)CC1` [Example 42, [5-Cyclopropyl-6-(4-fluoro-benzyl)-pyridin-2-yl]-(4,4-dimethyl-piperidin-1-yl)-methanone], the EC50 (human CB2 receptors) was 0.009 µM and the EC50 (human CB1 receptors) was over 10 µM.

`COC1CN(c2ccc(C(=O)N3CS(=O)(=O)CC3C(N)=O)nc2OCC2CC2)C1` (centres unmarked) [Example 128, 3-[6-(Cyclopropylmethoxy)-5-(3-methoxyazetidin-1-yl)pyridine-2-carbonyl]-1,1-dioxo-1,3-thiazolidine-4-carboxamide] was tested, and the EC50 (human CB2 receptors) was 0.0302 µM and the EC50 (human CB1 receptors) was over 10 µM.

Molecule `O=C(c1ccc(N2CC(F)(F)C2)c(OCC2CC2)n1)N1CC(O)(C(F)(F)F)C1` [Example 139, [6-(Cyclopropylmethoxy)-5-(3,3-difluoroazetidin-1-yl)pyridin-2-yl]-[3-hydroxy-3-(trifluoromethyl)azetidin-1-yl]methanone] has an EC50 (human CB2 receptors) of 0.042 µM and an EC50 (human CB1 receptors) of over 10 µM.

In the case of `O=C(c1ccc(N2CC(F)(F)C2)c(OCC2CC2)n1)N1CC(F)(F)C1` [Example 102, [6-Cyclopropylmethoxy-5-(3,3-difluoro-azetidin-1-yl)-pyridin-2-yl]-(3,3-difluoro-azetidin-1-yl)-methanone], the EC50 (human CB2 receptors) is reported as 0.181 µM and the EC50 (human CB1 receptors) is reported as over 10 µM.

Molecule `NC(=O)C1CS(=O)(=O)CN1C(=O)c1ccc(C2(O)CCC2)c(OCC2CC2)n1` (centres unmarked) [Example 131, 3-[6-(Cyclopropylmethoxy)-5-(1-hydroxycyclobutyl)pyridine-2-carbonyl]-1,1-dioxo-1,3-thiazolidine-4-carboxamide] has an EC50 (human CB2 receptors) of 0.0625 µM and an EC50 (human CB1 receptors) of over 10 µM.

`O=C(c1ccc(N2CC(F)(F)C2)c(OCC2CC2)n1)N1CC(F)(F)C[C@H]1CO` [Example 53, [6-Cyclopropylmethoxy-5-(3,3-difluoro-azetidin-1-yl)-pyridin-2-yl]-((S)-4,4-difluoro-2-hydroxymethyl-pyrrolidin-1-yl)-methanone] gave an EC50 (human CB2 receptors) of 0.0037 µM and an EC50 (human CB1 receptors) of over 10 µM.

For `CCN(CCOC)C(=O)c1ccc(N2CC(F)(F)C2)c(OCC2CC2)n1` [Example 39, 6-Cyclopropylmethoxy-5-(3,3-difluoro-azetidin-1-yl)-pyridine-2-carboxylic acid ethyl-(2-methoxy-ethyl)-amide], the EC50 (human CB2 receptors) was 0.142 µM and the EC50 (human CB1 receptors) was over 10 µM.

With `COCC(C)(C)N(C)C(=O)c1ccc(N2CC(F)(F)C2)c(OCC2CC2)n1` [Example 9, 6-Cyclopropylmethoxy-5-(3,3-difluoro-azetidin-1-yl)-pyridine-2-carboxylic acid (2-methoxy-1,1-dimethyl-ethyl)-methyl-amide] the EC50 (human CB2 receptors) was 0.0038 µM and the EC50 (human CB1 receptors) was over 10 µM.

In the case of `O=C(c1ccc(N2CC(F)(F)C2)c(OCC2CC2)n1)N1CC(F)(F)C(F)(F)C1` [Example 118, [6-Cyclopropylmethoxy-5-(3,3-difluoro-azetidin-1-yl)-pyridin-2-yl]-(3,3,4,4-tetrafluoro-pyrrolidin-1-yl)-methanone], the EC50 (human CB2 receptors) is reported as 0.0132 µM and the EC50 (human CB1 receptors) is reported as over 10 µM.

`O=C(c1ccc(N2CC(F)(F)C2)c(OCC2CC2)n1)N1CCCC12CCC2` [Example 101, (5-Aza-spiro[3.4]oct-5-yl)-[6-cyclopropylmethoxy-5-(3,3-difluoro-azetidin-1-yl)-pyridin-2-yl]-methanone] showed an EC50 (human CB2 receptors) of 0.0049 µM and an EC50 (human CB1 receptors) of over 10 µM.

`CN(C(=O)c1ccc(C2CC2)c(Cc2ccc(F)cc2)n1)C(C)(C)C` [Example 5, 5-Cyclopropyl-6-(4-fluoro-benzyl)-pyridine-2-carboxylic acid tert-butyl-methyl-amide] gave an EC50 (human CB2 receptors) of 0.0008 µM and an EC50 (human CB1 receptors) of 0.268 µM.

`O=C(OCc1ccccc1)N1CCN(C(=O)c2ccc(N3CC(F)(F)C3)c(OCC3CC3)n2)CC1` [Example 109, 4-[6-Cyclopropylmethoxy-5-(3,3-difluoro-azetidin-1-yl)-pyridine-2-carbonyl]-piperazine-1-carboxylic acid benzyl ester] was tested, and the EC50 (human CB2 receptors) was 0.36 µM and the EC50 (human CB1 receptors) was over 10 µM.

In the case of `NC(=O)[C@@H]1CC(F)(F)CN1C(=O)c1ccc(N2CC(F)(F)C2)c(OCC2CC2)n1` [Example 60, (S)-1-[6-Cyclopropylmethoxy-5-(3,3-difluoro-azetidin-1-yl)-pyridine-2-carbonyl]-4,4-difluoro-pyrrolidine-2-carboxylic acid amide], the EC50 (human CB2 receptors) is reported as 0.00308 µM and the EC50 (human CB1 receptors) is reported as over 10 µM.

`O=C(c1ccc(N2CC(F)(F)C2)c(OCC2CC2)n1)N1CCCC12COC2` [Example 38, [6-Cyclopropylmethoxy-5-(3,3-difluoro-azetidin-1-yl)-pyridin-2-yl]-(2-oxa-5-aza-spiro[3.4]oct-5-yl)-methanone] gave an EC50 (human CB2 receptors) of 0.212 µM and an EC50 (human CB1 receptors) of over 10 µM.

`CC(C)(C)N(CC(=O)O)C(=O)c1ccc(N2CC(F)(F)C2)c(OCC2CC2)n1` [Example 24, {tert-Butyl-[6-cyclopropylmethoxy-5-(3,3-difluoro-azetidin-1-yl)-pyridine-2-carbonyl]-amino}-acetic acid] showed an EC50 (human CB2 receptors) of 0.34 µM and an EC50 (human CB1 receptors) of over 10 µM.

For `NC(=O)[C@@H]1C[C@H](F)CN1C(=O)c1ccc(C2CC2)c(OCC2CC2)n1` [Example 69, (2S,4S)-1-(5-Cyclopropyl-6-cyclopropylmethoxy-pyridine-2-carbonyl)-4-fluoro-pyrrolidine-2-carboxylic acid amide], the EC50 (human CB2 receptors) was 1.04 µM and the EC50 (human CB1 receptors) was over 10 µM.

`CC1C(c2ccccc2)CCCN1C(=O)c1ccc(N2CC(F)(F)C2)c(OCC2CC2)n1` (centres unmarked) [Example 64, [6-Cyclopropylmethoxy-5-(3,3-difluoro-azetidin-1-yl)-pyridin-2-yl]-(2-methyl-3-phenyl-piperidin-1-yl)-methanone] was tested, and the EC50 (human CB2 receptors) was 0.0405 µM and the EC50 (human CB1 receptors) was over 10 µM.

Reference: patent US9303012B2, “Pyridine-2-amides useful as CB2 agonists” (Hoffmann-La Roche Inc., priority 2012, dated 2016)
